# Patent US20250276994A1, “CAP ANALOG FOR THE 5'-END OF EUKARYOTIC MESSENGER RNAS” (WESTFÄLISCHE WILHELMS-UNIVERSITÄT, priority 2021, published 2025)
# Legend:
# T7 RNA polymerase = target: T1, T7 RNA polymerase (Escherichia phage T7, UniProt P00573); test: In vitro transcription of GLuc mRNA with cap analogs, gel analysis; assay type: biochemical
# T1 construct: purchased Thermo Scientific
# Experimental: First, the DNA sequence coding for eGFP, Firefly luciferase (FLuc) or Gaussia luciferase (GLuc) mRNAs were amplified from pmRNA-vectors containing the respective sequence. After purification (NucleoSpin Gel and PCR Clean-up, Macherey-Nagel), the resulting linear dsDNA was used as template (200 ng) for in vitro T7 transcription performed in transcription buffer (40 mM Tris/HCl, 25 mM NaCl, 8 mM MgCl2, 2 mM spermidine(HCl)3) by adding either a A/C/UTP (0.5 mM) mix or a mix with modified nucleotides (A/m^5C/N^1-methylpseudo-UTP) (0.5 mM), GTP (0.25 mM), GpppG, m7GpppG, ApppG, DMNB or NPOM cap analog (1 mM), T7 RNA polymerase (50 U) (Thermo Scientific) and pyrophosphatase (0.1 U) (Thermo Scientific) for 4 h at 37° C. Remaining DNA template was digested in presence of 2 U DNase I for 1 h at 37° C. and then mRNAs were purified using the RNA Clean & Concentrator™-5 Kit (Zymo Research). To digest non-capped RNAs, 10 U of the RNA 5′-polyphosphatase (Epicentre) as well as the supplied reaction buffer were added to purified mRNAs. After an incubation period of 30 min at 37° C., 0.5 U of the 5′-3′ exoribonuclease XRN1 (NEB) and MgCl2 (5 mM) were added. The reaction mixture was incubated for 60 min at 37° C. Subsequently, capped mRNAs were purified using the RNA Clean & Concentrator™-5 Kit (Zymo Research).
# The photocleavable 5′-cap analogs of formulas (12) and (18) were used for in vitro transcription of GLuc mRNA as described above and analysed via agarose gel electrophoresis.
# “M” denotes Riboruler low range RNA ladder.
# Reticulocyte Lysate = test: In vitro translation of capped FLuc-mRNA and luminescence measurement; assay type: biochemical; details: capped FLuc-mRNA
# Experimental: In vitro translation was performed using a eukaryotic cell free protein expression kit from Reticulocyte Lysate (Invitrogen). Experiments were performed in 12.5 μL total volume containing 20 ng of the corresponding FLuc-mRNAs, 50 μM L-methionine and 150 mM potassium acetate. Samples were mixed with 8.5 μL of the reticulocyte lysate and incubated for 90 min at 30° C. Afterwards, 2 μL of the respective translation mix were used in subsequent luminescence measurement. The translation efficiency of the reporter mRNAs was assessed in a luciferase assay using Beetle-juice Luciferase Assay Firefly (pjk). Luciferase activity was determined by adding 50 μL freshly prepared substrate solution to the translation mixture. Luminescence was monitored using a Tecan Infinite® m1000pro microplate reader with an acquisition time of 3 s (duration of signal acquisition).
# The photocleavable 5′-cap analog of formula (7) was used for in vitro transcription to make FLuc mRNA as described above. This was used for in vitro translation and Luminescence measurement as described above. The commercial non-modified cap analog denoted “m^7GpppG” (Jena Bioscience) was used as positive control. Samples were irradiated for 30 seconds. The ApppG capped mRNA, which is not recognized by the translation initiation factor served as negative control, which is substracted from the other samples as it represents background activity. The experiment was performed in quadruplicates. The FLuc-mRNA capped with the photocleavable 5′-cap analog of formula (7) is denoted “ONB”.
# The in vitro translation assay and luminescence measurement was performed as described above using the photocleavable 5′-cap analog of formula (12). The capped mRNA was denoted “DMNB-m^7GpCH2ppG capped FLuc-mRNA”. Samples were irradiated for 30 seconds (365 nm) or 60 seconds (405 nm). The commercial non-modified cap analog denoted “m^7GpppG” (Jena Bioscience) was used as positive control and all other samples were normalized to it. The ApppG capped mRNA, which is not recognized by the translation initiation factor served as negative control, which is substracted from the other samples as it represents background activity. The experiment was performed in triplicates, except *DMNB-m7GpCH2ppG (365 nm) which was a single determination.
# The in vitro translation assay in reticulocyte lysate and luminescence measurement was performed as described above using m^7GpppG capped FLuc-mRNA caged with the photocleavable 5′-cap analog of formulas (22) and (25) (denoted “DMNB m^7GpppG” and “NPOM m^7GpppG”). Samples were irradiated for 30 seconds at 365 nm. The ApppG capped mRNA, which is not recognized by the translation initiation factor served as negative control, which was substracted from the other samples as it represents background activity. The values were normalized to the non-irradiated sample with m^7GpppG capped mRNA (100%). The experiment was performed in triplicates.
# The in vitro translation assay in reticulocyte lysate and luminescence measurement was performed as described above using m^7GpppG capped FLuc-mRNA with modified nucleotides m^5C and N^1methyl-pseudouridine caged with the photocleavable 5′-cap analog of formulas (22) and (25) (denoted “DMNB m^7GpppG mod” and “NPOM m^7GpppG mod”). Samples were irradiated for 30 seconds at 365 nm. The ApppG capped mRNA, which is not recognized by the translation initiation factor served as negative control, which was substracted from the other samples as it represents background activity. The values were normalized to the non-irradiated sample with m^7GpppG capped mRNA (100%). The experiment was performed in triplicates.
# HeLa cells = test: Cell viability after irradiation, MTT test; assay type: cell-based; details: 365 nm 30 seconds or 405 nm 60 seconds; normalized to non-irradiated m7GG; single determination
# Experimental: 3×10^4 cells in HeLa cell media (100 μL) were transferred in one well of a 96 well-plate. After 24 h the cells were transfected with Metafectene® Pro (0.3 μL) in MEM Earle's media (4.7 μL) and modified mRNA (0.1 μg) in MEM Earle's media (5 μL) for 6 h at 37° C. in a total volume of 100 μL. For subsequent toxicity assays, the media containing the transfection reagent was removed and cells were incubated overnight in fresh serum-free HeLa cell media. Cellular lethality was checked using the LDH Cytotoxicity Detection Kit, cellular viability was checked using the Vybrant® MTT Cell Proliferation Assay Kit (A volume of 100 μL 0.04 M HCl in 2-propanol was used instead of SDS-HCl solution to dissolve the formazan.) and cellular proliferation was checked using the BrdU Cell Proliferation Assay Kit. In each case, 24 h after transfection, absorbance was measured photometrically using the Tecan Infinite® M1000 Pro according to the manufacturer's instructions.
# To evaluate the cell viability after irradiation, a MTT test was used as described above. HeLa cells were irradiated (5 V, 600 mA) with either 365 nm (m7GG 365, DMNB 365) or 405 nm (m7GG 405, DMNB 405) for 30 seconds (365 nm) or 60 seconds (405 nm). The values were normalized to the non-irradiated sample (m7GG).
# T1 sequence (P00573 whole entry): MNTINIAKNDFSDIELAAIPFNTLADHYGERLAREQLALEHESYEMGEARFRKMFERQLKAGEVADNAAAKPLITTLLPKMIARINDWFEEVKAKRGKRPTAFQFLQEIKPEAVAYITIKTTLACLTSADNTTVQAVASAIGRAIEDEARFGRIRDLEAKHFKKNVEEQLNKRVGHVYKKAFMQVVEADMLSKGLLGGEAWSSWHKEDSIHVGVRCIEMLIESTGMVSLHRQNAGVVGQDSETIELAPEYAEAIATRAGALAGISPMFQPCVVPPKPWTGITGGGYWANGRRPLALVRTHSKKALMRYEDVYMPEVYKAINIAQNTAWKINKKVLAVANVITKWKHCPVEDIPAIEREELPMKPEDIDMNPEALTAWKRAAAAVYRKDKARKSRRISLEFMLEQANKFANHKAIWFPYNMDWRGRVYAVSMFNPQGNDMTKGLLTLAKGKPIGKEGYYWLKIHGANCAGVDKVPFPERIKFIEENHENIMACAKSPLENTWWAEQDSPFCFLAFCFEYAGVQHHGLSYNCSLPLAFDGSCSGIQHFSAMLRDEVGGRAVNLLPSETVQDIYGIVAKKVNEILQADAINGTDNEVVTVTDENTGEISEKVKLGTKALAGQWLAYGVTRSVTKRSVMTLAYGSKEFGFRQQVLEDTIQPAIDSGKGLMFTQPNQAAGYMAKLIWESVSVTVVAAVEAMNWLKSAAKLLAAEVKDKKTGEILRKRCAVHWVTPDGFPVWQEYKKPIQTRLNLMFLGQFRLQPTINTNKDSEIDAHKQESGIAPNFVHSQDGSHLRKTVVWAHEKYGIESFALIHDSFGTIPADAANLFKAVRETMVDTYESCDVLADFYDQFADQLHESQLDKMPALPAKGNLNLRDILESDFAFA
smiles,measurement,setting,value
"COc1cc(COC(=O)Nc2nc3c(c(=O)[nH]2)[n+](C)cn3[C@@H]2O[C@H](COP(=O)(O)CP(=O)(O)OP(=O)(O)OC[C@H]3O[C@@H](n4cnc5c(=O)[nH]c(N)nc54)C(O)C3O)C(O)C2O)c([N+](=O)[O-])cc1OC (stereo partly shown) [compound 12, P1-(N^2-(4,5-Dimethoxy-2-nitrobenzyl)oxycarbonyl-7-methylguanosin-5′-yl)-P3-guanosin-5′-yl 1,2-methylenetriphosphate]",incorporation of cap analog into RNA,T7 RNA polymerase,incorporated into the RNA
same,in vitro translation (luminescence) after irradiation,Reticulocyte Lysate; 30 seconds (365 nm) or 60 seconds (405 nm),partially restored
same,"in vitro translation (luminescence), non-irradiated","Reticulocyte Lysate; non-irradiated, normalized to m^7GpppG capped mRNA",successfully inhibited to a high degree
same,cell viability (MTT),HeLa cells,only slightly decreased
